# Measurements taken from patent publication US11786486B2, “Pharmaceutical compositions comprising 2,3,5-trimethyl-6-nonylcyclohexa-2,5-diene-1,4-dione” (PTC THERAPEUTICS, INC., priority 2021, dated 2023).
# How the values were obtained:
# [1] = Physical stability on storage (microscope / polarized microscope); type: physicochemical; settings: 25° C./60% RH and 5° C.
# Procedure: Certain combinations of Gelucire 44/14 with Solutol HS15, TPGS and Tween 80 were screened as shown in Table 2 at 200 mg/g concentration of Compound 1. Physical stability was observed microscopically at week one at 25° C./60% RH and at 5° C. Bioperformance was assessed visual observation after 10× dilution in FaSSIF. Based on the crash resistance test performed with ten times dilution with FaSSIF, the most promising formulation combination for Gelucire 44/14 appeared to be 80% w/w Gelucire 44/14, 10% w/w TPGS and 10% w/w Tween 80.
# In the above table and in this paragraph, the % w/w are based on the total weight of the vehicle without compound. The 80% w/w Gelucire 44/14, 10% w/w TPGS and 10% w/w Tween 80 formulation vehicles were further tested at lower Compound 1 concentrations of 150 mg/g (i.e. 150 mg of Compound 1 in 1 g of Compound 1+vehicle) and 100 mg/g (i.e. 100 mg of Compound 1 in 1 g of Compound 1+vehicle) to minimize the crystallization risk upon storage. Physical stability was observed microscopically at week one at 25° C./60% RH and at 5° C. Bioperformance was assessed visual observation after 10× dilution in FaSSIF.
# Physical stability evaluation of both Gelucire 44/14-based and Labrafac-WL-1349-based formulation vehicles was done under polarized microscope. […] Therefore, Labrafac-WL-1349-based formulation was physically stable upon storage.
# [2] = Solubility of Compound 1 in oils, surfactants and co-surfactants; type: physicochemical
# Procedure: Based on the initial screening as shown in Table 1 and based on limits of excipients allowed by FDA, the solubility of Compound 1 in the oils in Table 1A were measured. Based on the solubility data, Labrafac WL 1349 was further pursued.
# A total of 36 different excipients including pharmaceutically acceptable oils, surfactants and co-surfactants were evaluated for Compound 1. Higher solubility of Compound 1 in oils is desirable to increase drug loading.
compound,measurement,setting,value
"CCCCCCCCCC1=C(C)C(=O)C(C)=C(C)C1=O [Compound 1, 2,3,5-trimethyl-6-nonylcyclohexa-2,5-diene-1,4-dione]",Physical stability,"[1]; 150 mg/g in vehicle 80% Gelucire 44/14, 10% TPGS, 10% Tween 80, week one",Crystallization observed
same,Physical stability,"[1]; 200 mg/g in vehicle 70% Gelucire 44/14, 10% TPGS, 20% Tween 80, week one",Crystallization
same,Physical stability,"[1]; 200 mg/g in vehicle 80% Gelucire 44/14, 10% TPGS, 10% Tween 80, week one",Crystallization
same,Physical stability,"[1]; 200 mg/g in vehicle 80% Gelucire 44/14, 20% Tween 80, week one",Crystallization
same,Physical stability,"[1]; 200 mg/g in vehicle 85% Gelucire 44/14, 5% Solutol HS15, 5% TPGS, 5% Tween 80, week one",Crystallization
same,Physical stability,"[1]; 200 mg/g in vehicle 90% Gelucire 44/14, 10% TPGS, week one",Crystallization
same,Physical stability,"[1]; 200 mg/g in vehicle 90% Gelucire 44/14, 10% Tween 80, week one",Crystallization
same,Solubility of Compound 1,"[2]; in Soybean oil, RT",<150 mg/g
same,solubility,"[2]; oil or lipid, in Capryol 90, RT",125 mg/mL
same,solubility,"[2]; oil or lipid, in Capryol PGMC, RT",184 mg/mL
same,solubility,"[2]; oil or lipid, in Corn Oil, RT",115 mg/mL
same,solubility,"[2]; oil or lipid, in Cottonseed Oil, RT",112 mg/mL
same,solubility,"[2]; oil or lipid, in Labrafac Lipo WL1349, RT",141 mg/mL
same,solubility,"[2]; oil or lipid, in Labrafac PG, RT",222 mg/mL
same,solubility,"[2]; oil or lipid, in Labrafil M1944CS, RT",101 mg/mL
same,solubility,"[2]; oil or lipid, in Labrafil M2125CS, RT",119 mg/mL
same,solubility,"[2]; oil or lipid, in Lauroglycol 90, RT",133 mg/mL
same,solubility,"[2]; oil or lipid, in Lauroglycol FCC, RT",160 mg/mL
same,solubility,"[2]; oil or lipid, in Maisine CC, RT",90.3 mg/mL
same,solubility,"[2]; oil or lipid, in Olive oil, RT",135 mg/mL
same,solubility,"[2]; oil or lipid, in Plurol oleique CC 497",50 to 100 mg/mL
same,solubility,"[2]; oil or lipid, in Sesame oil, RT",139 mg/mL
same,solubility,"[2]; oil or lipid, in Soybean Oil, RT",111 mg/mL
same,solubility,"[2]; organic solvent or mixture, in Gelucire 44/14, 45° C.",269 mg/mL
same,solubility,"[2]; organic solvent or mixture, in Labrasol, RT",35.7 mg/mL
same,solubility,"[2]; organic solvent or mixture, in PEG400, 37° C.",11 mg/mL
same,solubility,"[2]; organic solvent or mixture, in Solutol HS15, 37° C.",94 mg/mL
same,solubility,"[2]; organic solvent or mixture, in TPGS, 45° C.",195 mg/mL
same,solubility,"[2]; organic solvent or mixture, in Triethyl citrate, RT",30.1 mg/mL
same,solubility,"[2]; organic solvent or mixture, in Tween 60",50 to 100 mg/mL
same,solubility,"[2]; organic solvent or mixture, in Tween 80",25 to 50 mg/mL
